Measurements from US20250362274A1, “SYSTEMS AND METHODS TO DETERMINE PARTITION COEFFICIENTS BETWEEN CRUDE OIL AND AN AQUEOUS PHASE” (Saudi Arabian Oil Company, priority 2024, published 2025).

Tests used:
[1] = Partition coefficient between crude oil and aqueous phase (microfluidic mixer, functionalized glass fiber separation tube, HPLC UV-Vis); type: physicochemical; details: tracer at 100 ppm, after mixing with crude oil and separation
Experimental: In step 2700, the partition coefficient is calculated using the measurement from step 2600 and the reference points and calibration curve from step 2100. The partition coefficient of a substance “A” is defined as
where [A]org is the concentration of substance A in the organic phase, and [A]aq is the concentration of substance A in the water phase, with equal volumes of organic and aqueous phases at equilibrium. The detection system 1300 and the calibration curve from the step 2100 can provide [A]aq. [A]total can be obtained from the step 2200 and [A]org can be calculated as [A]org=[A]total−[A]aq.
A partition coefficient detection system was constructed using a teardrop microfluidic mixer (micronit), a functionalized glass fiber packed capillary tube oil/water phase separator, and a 1D HPLC UV-Vis detector (Agilent, 1290 Infinity HPLC system).
To prepare the functionalized glass fiber packed capillary tube oil/water phase separator, a hydrophobic fiber filtration material was prepared by chemically functionalizing surfaces of glass wool. […] The washed glass wool was immersed in 20 mL Piranha solution (3:1 mixture of concentrated sulfuric acid and 30% hydrogen peroxide) for 30 mins, then the treated glass wool was removed from the Piranha solution and rinsed with DI water until the pH value of the water used for rinsing was near neutral pH (pH=7±1), as monitored by a pH meter. […]

[2] = Hansch, C. et al. (1995); cited from earlier work

O=C(O)c1ccccc1F [2-fluorobenzoic acid]
partitioning behavior between crude oil and aqueous phase (FIG. 4) [1]: did not show partitioning behavior

OCc1ccc(Cl)cc1 [4-CBA, 4-chlorobenzyl alcohol]
partitioning behavior between crude oil and aqueous phase (FIG. 4) [1]: did show partitioning behavior | partition coefficient (log P), value from the literature [2]: 1.96
